According to article PMC10987480, “Biological and mutational analyses of CXCR4–antagonist interactions and design of new antagonistic analogs” (Bioscience Reports, 2023):

What was measured:
[1] = biological target: T1, CXCR4 (Homo sapiens, UniProt P61073); assay: SDF-1α-induced calcium mobilization assay in SupT1 cells (Fluo-4); assay type: cell-based; set-up: host or cells: SupT1 cells; details: SUP-T1, at 5 nM, 50 nM SDF-1α
Method: Figure 2 The inhibitory effect of the antagonists on SDF-1α-induced cell chemotaxis and calcium mobilization in SupT1 cells The antagonists and concentrations used were labeled in each lane. (A) The inhibition of cell migration by the noted antagonists. SupT1 cells pre-treated with or without CXCR4 antagonists were seeded in the upper well and cell migrated by 2 nM SDF-1α. Migrated cells without SDF-1α were used as a negative (0%) and migrated cell induced by SDF-1α as a positive control (100%). […] SupT1 cells were treated with or without CXCR4 antagonists and activated by 50 nM SDF-1α. To directly compare the inhibitory effect of the antagonists on calcium mobilization, the vehicle background and baseline were removed using GraphPad and Origin. The data were averages of at least three independent experiments.
SupT1 cells were collected and washed using HHBS buffer (Hanks’ Balanced Salt solution supplemented with 20 mM HEPES) and incubated with 1 mM probenecid (Energy Chemical, China) and 4 μM Fluo-4 (AAT bioquest, U.S.A.) for 37°C for 30 min with vortex every 5 min. After being washed with HHBS, cells were suspended in PBS at 2 × 10^6/ml and seeded 200 μl cells and various concentrations of compounds per well in 96-well plate. Following 50 nM SDF-1α was added to each well, the fluorescence intensity was measured (Ex/Em = 496/516 nm) using EnSpire® multimode plate reader (PerkinElmer, U.S.A.).

[2] = biological target: T2, CXCR4 V112A (Homo sapiens, UniProt P61073, V112A); assay: Competitive binding to CXCR4 mutant V112A (12G5, CHO cells); details: TM3, class of reduction vs wild-type CXCR4, 12G5 competition, averages of at least three independent experiments
T2 construct: expressed in transfected cells
Method: (§1) Plasmid pcDNA3-CXCR4 and mutated pcDNA3-CXCR4 were extracted and transfected into CHO cells using Lipofectamine 2000 according to the manufacturer’s guidelines. The selective medium containing G418 at a concentration of 1.2 mg/ml was applied to isolate stably transfected cells. CHO cells expressing wild-type CXCR4 and mutant CXCR4 were obtained using fluorescence-activated cell sorting (FACS).
(§2) All of the CXCR4 mutants were prepared using PCR technology. Briefly, pairs of asymmetrical primers containing the desired amino acid mutations (Supplementary Tables S1 and S2), each complementary to opposite strands of the pcDNA3–CXCR4, were designed for amplification by Q5® High-Fidelity DNA polymerase and the generation of mutated constructs. The methylated pcDNA3–CXCR4 templates were digested by DpnI. The mutated pcDNA3–CXCR4 was transformed into competent E. coli TOP10 for long-term storage and amplification.
(§3) The procedure for the CXCR4 competitive binding experiments was published previously. Briefly, CXCR4 antibody 12G5 (250 ng/ml) was incubated with 5 × 10^5 cells and varying concentrations of unlabeled compounds in a final volume of 100 μl of assay buffer (PBS with 0.5% BSA and 0.05% NaN3) in 96-well plates for 40 min on ice, after being washed with assay buffer once. The cells were incubated with FITC-conjugated second antibody IgG for 30 min on ice, then washed with assay buffer three times. The fluorescence intensity was measured for excitation at 485 nm and emission at 535 nm using multimode plate reader (PerkinElmer). The IC50 values were calculated using graphpad Prism 7. Experiments were performed at least three times.

[3] = biological target: T1, CXCR4; assay: Competitive CXCR4 binding assay (12G5 antibody probe), wild-type CXCR4 transfected CHO cells; set-up: expressed in transfected cells; Competitive receptor binding activity, wild-type CXCR4 (WT): key to the marks not given beside the values; details: class relative to wild-type; 12G5 competition, stably transfected CHO cells; averages of at least three independent experiments
Method: The CXCR4-specific antibody, 12G5 was used as a probe for the competitive CXCR4 binding assay to evaluate the binding activity of CXCR4 antagonists.
Figure 1 Competitive CXCR4 binding curves of eleven CXCR4 antagonists The CXCR4 transfected CHO cells were incubated with different concentrations of antagonists and 250 ng/ml 12G5 antibody. The CXCR4-binding 12G5 antibody was recognized by FITC-conjugated anti-IgG second antibody. The cells treated with only second antibody were used as a negative control (0%) while cells treated with both 12G5 antibody and second antibody were used as a positive control (100%). Cells treated with CXCR4 antagonists were calculated in percentage relative to the positive and negative controls. The data were averages of at least three independent experiments and shown as mean ± standard error of the mean (S.E.M.).
as §3

[4] = biological target: T3, CXCR4 W195A (Homo sapiens, UniProt P61073, W195A); assay: Competitive binding to CXCR4 mutant W195A (12G5, CHO cells); details: TM4, class of reduction vs wild-type CXCR4, 12G5 competition, averages of at least three independent experiments
T3 construct: expressed in transfected cells
Method: as §1, §2, §3

[5] = biological target: T4, CXCR4 H113A (Homo sapiens, UniProt P61073, H113A); assay: Competitive binding to CXCR4 mutant H113A (12G5, CHO cells); details: TM3, class of reduction vs wild-type CXCR4, 12G5 competition, averages of at least three independent experiments
T4 construct: expressed in transfected cells
Method: as §1, §2, §3

[6] = biological target: T5, CXCR4 Y255A (Homo sapiens, UniProt P61073, Y255A); assay: Competitive binding to CXCR4 mutant Y255A (12G5, CHO cells); details: TM6, class of reduction vs wild-type CXCR4, 12G5 competition, averages of at least three independent experiments
T5 construct: expressed in transfected cells
Method: as §1, §2, §3

[7] = biological target: T6, CXCR4 D97A (Homo sapiens, UniProt P61073, D97A); assay: Competitive binding to CXCR4 mutant D97A (12G5, CHO cells); details: TM2, class of reduction vs wild-type CXCR4, 12G5 competition, averages of at least three independent experiments
T6 construct: expressed in transfected cells
Method: as §1, §2, §3

[8] = biological target: T7, CXCR4 D262E (Homo sapiens, UniProt P61073, D262E); assay: Competitive binding to CXCR4 mutant D262E (12G5, CHO cells); details: TM6, class of reduction vs wild-type CXCR4, 12G5 competition, averages of at least three independent experiments
T7 construct: expressed in transfected cells
Method: as §1, §2, §3

[9] = biological target: T8, CXCR4 W161A (Homo sapiens, UniProt P61073, W161A); assay: Competitive binding to CXCR4 mutant W161A (12G5, CHO cells); details: TM4, class of reduction vs wild-type CXCR4, 12G5 competition, averages of at least three independent experiments
T8 construct: expressed in transfected cells
Method: as §1, §2, §3

[10] = biological target: T9, CXCR4 H281A (Homo sapiens, UniProt P61073, H281A); assay: Competitive binding to CXCR4 mutant H281A (12G5, CHO cells); details: TM7, class of reduction vs wild-type CXCR4, 12G5 competition, averages of at least three independent experiments
T9 construct: expressed in transfected cells
Method: as §1, §2, §3

[11] = biological target: T10, CXCR4 H203A (Homo sapiens, UniProt P61073, H203A); assay: Competitive binding to CXCR4 mutant H203A (12G5, CHO cells); details: TM5, class of reduction vs wild-type CXCR4, 12G5 competition, averages of at least three independent experiments
T10 construct: expressed in transfected cells
Method: as §1, §2, §3

[12] = biological target: T11, CXCR4 T117A (Homo sapiens, UniProt P61073, T117A); assay: Competitive binding to CXCR4 mutant T117A (12G5, CHO cells); details: TM3, class of reduction vs wild-type CXCR4, 12G5 competition, averages of at least three independent experiments
T11 construct: expressed in transfected cells
Method: as §1, §2, §3

[13] = biological target: T12, CXCR4 Y45A (Homo sapiens, UniProt P61073, Y45A); assay: Competitive binding to CXCR4 mutant Y45A (12G5, CHO cells); details: TM1, class of reduction vs wild-type CXCR4, 12G5 competition, averages of at least three independent experiments
T12 construct: expressed in transfected cells
Method: as §1, §2, §3

T1 sequence (P61073 whole entry): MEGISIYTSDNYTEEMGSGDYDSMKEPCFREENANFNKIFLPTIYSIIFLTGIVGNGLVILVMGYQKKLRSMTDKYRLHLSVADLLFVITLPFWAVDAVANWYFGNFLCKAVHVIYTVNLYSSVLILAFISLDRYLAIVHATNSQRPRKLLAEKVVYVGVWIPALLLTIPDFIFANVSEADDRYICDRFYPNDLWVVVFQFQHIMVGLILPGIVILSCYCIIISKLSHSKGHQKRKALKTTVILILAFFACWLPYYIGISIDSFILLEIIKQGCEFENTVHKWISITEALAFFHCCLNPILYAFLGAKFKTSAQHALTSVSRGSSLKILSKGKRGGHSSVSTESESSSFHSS
T8 sequence (P61073 whole entry W161A): as the sequence (P61073 whole entry) above, with W161A counted along it
T3 sequence (P61073 whole entry W195A): as the sequence (P61073 whole entry) above, with W195A counted along it
T2 sequence (P61073 whole entry V112A): as the sequence (P61073 whole entry) above, with V112A counted along it
T10 sequence (P61073 whole entry H203A): as the sequence (P61073 whole entry) above, with H203A counted along it
T5 sequence (P61073 whole entry Y255A): as the sequence (P61073 whole entry) above, with Y255A counted along it
T6 sequence (P61073 whole entry D97A): as the sequence (P61073 whole entry) above, with D97A counted along it
T7 sequence (P61073 whole entry D262E): as the sequence (P61073 whole entry) above, with D262E counted along it
T9 sequence (P61073 whole entry H281A): as the sequence (P61073 whole entry) above, with H281A counted along it
T11 sequence (P61073 whole entry T117A): as the sequence (P61073 whole entry) above, with T117A counted along it
T4 sequence (P61073 whole entry H113A): as the sequence (P61073 whole entry) above, with H113A counted along it
T12 sequence (P61073 whole entry Y45A): as the sequence (P61073 whole entry) above, with Y45A counted along it

inhibition at 0.005 µM [1]: 71% | Competitive receptor binding activity, CXCR4 V112A [2]: +++ | Competitive receptor binding activity, wild-type CXCR4 (WT) [3]: +++ | Competitive receptor binding activity, CXCR4 Y255A [6]: +++ | Competitive receptor binding activity, CXCR4 D262E [8]: +++ | Competitive receptor binding activity, CXCR4 H203A [11]: +++ | Competitive receptor binding activity, CXCR4 T117A [12]: +++
Structure (SMILES): NCCCCN(Cc1nc2ccccc2[nH]1)[C@H]1CCCc2cccnc21 [AMD11070]
Competitive receptor binding activity, CXCR4 W195A [4]: ++ (10–29% reduction compared with wild-type CXCR4) | Competitive receptor binding activity, CXCR4 H113A [5]: + (30–60% reduction compared with wild-type CXCR4) | Competitive receptor binding activity, CXCR4 D97A [7]: + (30–60% reduction compared with wild-type CXCR4) | Competitive receptor binding activity, CXCR4 W161A [9]: ++ (10–29% reduction compared with wild-type CXCR4) | Competitive receptor binding activity, CXCR4 H281A [10]: ++ (10–29% reduction compared with wild-type CXCR4) | Competitive receptor binding activity, CXCR4 Y45A [13]: ++ (10–29% reduction compared with wild-type CXCR4)
